Assay [1] concerns the target T1, 4E-BP1 (Homo sapiens, UniProt Q13541).
T1 construct: gene EIF4EBP1; amine-coupled to CM5 chip; PDB 2JGB used for docking only
The assay is described as follows: SPR (BIAcore T200, CM5 chip, immobilized 4E-BP1, […] Langmuir). The format is binding. (In SPR one partner is held on a chip, and binding of the other changes the refractive index at the surface.)

Assay [2] has as its target T1, 4E-BP1. The assay is described as above. Particulars: 25 °C; 0-125 μM analyte; unreliable (discussion b43 prints another KD, 3.75 × 10^−5 M, and a negative deviation of the binding curve).

What is called Kd is a measure of binding affinity in units of concentration. Higher therefore signals weaker binding. One may read the KD as the constant that tells how readily two partners part at equilibrium. A high value points to a looser complex.

T1 sequence (Q13541 2-118): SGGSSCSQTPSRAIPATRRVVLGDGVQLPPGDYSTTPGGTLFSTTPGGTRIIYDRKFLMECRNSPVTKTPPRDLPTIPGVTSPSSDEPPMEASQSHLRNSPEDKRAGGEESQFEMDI

`O=C(/C=C/c1ccc(O)c(O)c1)O[C@@H]1C[C@](O)(C(=O)O)C[C@@H](O)[C@H]1O` [chlorogenic acid]: the Kd on 4E-BP1 [1] came to 55.6 µM. On 4E-BP1 [2], `O=C(/C=C/c1ccc(O)c(O)c1)O[C@H]1[C@H](O)C[C@](O)(C(=O)O)C[C@H]1O` [cryptochlorogenic acid] returned a KD of 4.469 µM. `O=C(O)/C=C/c1ccc(O)c(O)c1` [caffeic acid] had a Kd at 4E-BP1 [1] of 12.9 µM.
